According to patent publication US20100105707A1, “METHOD OF TREATING OR PREVENTING OXIDATIVE STRESS-RELATED DISEASE” (The United States of America, priority 2006, published 2010):
≈ marks a conversion by molar mass, not a printed value.

Experiments:
[1] = Water solubility in cold water; format: physicochemical
Protocol: Commercially available derivatives are obtained from Sigma-Aldrich (St. Louis, Mo.). The methods used for the synthesis of methyl- and sulfur-derivatives of uric acid are similar to those described previously (Beaman et al., J. Org. Chem., 27, 986-990 (1962) and Maruyama et al., Nucleosides, Nucleotides, Nucleic Acids, 19, 1193-1203 (2000)) and structures are confirmed by ^13C nuclear magnetic resonance (NMR) and ultra-violet (UV) spectral analyses. Uric acid analogs are assayed by high performance liquid chromatography (HPLC) and found to be of >97% purity.

[2] = tested on: mouse model of focal ischemic stroke; assay: Focal cerebral ischemia-reperfusion (middle cerebral artery occlusion) model; format: in vivo, C57BL/6 mice; settings: administered 1 h after ischemia onset; for functional outcome (neurological deficit score): FIG. 5A; for brain damage: FIG. 5B
Protocol: (§1) FIG. 4 illustrates that a compound of formula (I) improves functional outcome (e.g., ambulation) and reduces brain damage in a mouse model of focal ischemic stroke in an embodiment of the invention. In FIG. 4A neurological function is scored at 24, 48 and 72 hours post-stroke. In FIG. 4B infarct volume is quantified at 72 hours post-stroke. Values are the mean and SEM (n=8-12 mice). *p<0.001 compared to sham. +p<0.01 compared to vehicle.
as §1, with “FIG. 5” for “FIG. 4”, “that compounds” for “that a compound”, “(I) improve” for “(I) improves”, “outcome” for “outcome (e.g., ambulation)”, “FIG. 5A,” for “FIG. 4A”, “FIG. 5B,” for “FIG. 4B”
Three month-old male C57BL/6 mice are maintained on a 12 h light/12 h dark cycle with continuous access to food and water. The method for subjecting the mice to middle cerebral artery occlusion-reperfusion has been described previously (Arumugam et al., Am. J. Physiol. Heart Circ. Physiol., 287, H2555-2560 (2004)). Mice are anesthetized with isofluorane, a midline incision is made in the neck, and the left external carotid and pterygopalatine arteries are isolated and ligated with 5-0 silk thread. The internal carotid artery (ICA) is occluded at the peripheral site of the bifurcation of the internal carotid artery and the pterygopalatine artery with a small clip and the common carotid artery is ligated with 5-0 silk thread. The external carotid artery is cut, and a 6-0 nylon monofilament with a tip that is blunted (0.2-0.22 mm) with a coagulator is inserted into the external carotid artery. After the clip at the ICA is removed, the nylon thread is advanced into the middle cerebral artery until light resistance is felt. The nylon thread and the common carotid artery ligature are removed after 1 h of occlusion to initiate reperfusion. In the sham group, these arteries are visualized but not disturbed. Mice are administered either uric acid analogs of formula (I) or vehicle (dimethylsulfoxide) by infusion into the femoral vein (10 μl infused over a 2 min period) either 30 min prior to or 60 min after the onset of middle cerebral artery (MCA) occlusion. In a separate set of experiments anesthetized animals from all groups (4-6 mice per group) undergo cerebral blood flow (CBF) measurements using a laser Doppler perfusion monitor. All blood flow measurements are conducted with the mouse fixed in a plastic frame with the probe placed in the region of cerebral cortex perfused by the middle cerebral artery. These procedures are approved by the National Institute on Aging Animal Care and Use Committee.
The functional consequences of focal cerebral ischemia-reperfusion injury are evaluated by using a five-point neurological deficit score (0, no deficit; 1, failure to extend right paw; 2, circling to the right; 3, falling to the right; and 4, unable to walk spontaneously) and are assessed in a blinded fashion. At 72 h of reperfusion, the mice are killed with a lethal dose of isofluorane. The brains are immediately removed and placed into PBS (4° C.) for 15 min, and 2-mm coronal sections are cut with a tissue cutter. The brain sections are stained with 2% 2,3,5-triphenyltetrazolium chloride in phosphate buffer at 37° C. for 15 min. The stained sections are photographed, and the digitized images are used for analysis. The borders of the infarct in each brain slice are outlined and the area quantified using a NIH image 6.1 software. To correct for brain swelling, the infarct area is determined by subtracting the area of undamaged tissue in the left hemisphere from that of the intact contralateral hemisphere. Infarct volume is calculated by integration of infarct areas for all slices of each brain.

[3] = tested on: cultured hippocampal neurons; assay: Oxygen and glucose deprivation (OGD) of cultured hippocampal neurons; format: cell-based, rat; settings: compared to neurons in control cultures; FIG. 2
Protocol: FIG. 2 illustrates that compounds of formula (I) protect cultured hippocampal neurons against ischemia-like conditions in an embodiment of the invention. Neuronal survival is quantified and values are the mean and SEM (n=8-10 cultures). *p<0.05 compared to the vehicle/OGD cultures. Synaptosomes are prepared from the cerebral cortex of 2-3 month-old adult male Sprague-Dawley rats and are cryopreserved using methods described previously (Begley et al., Brain Res. Protoc., 3, 76-82 (1998)). After thawing, cryopreserved synaptosomes are washed twice with Locke's buffer and plated in 24-well plates at a protein concentration of 250 μg per well. After a 30 min period to permit attachment of the synaptosomes to the substrate, synaptomoses are incubated for 1 h with compounds of formula (I) (1-10 μM), and then exposed for 4 h to freshly prepared 50 μM Fe^2+ (FeSO4). After an additional 30 min incubation in the presence of 10 μM dihydrorhodamine 123 (DHR), a probe for ROS which fluoresces when oxidized (Keller et al., J. Neurochem., 69, 273-284 (1997)), the synaptosomes are washed twice with Locke's buffer and levels of fluorescence are quantified using a fluorescence plate reader (488 nm excitation and 510 emission wavelengths). Fluorescence values for wells exposed to experimental treatments are expressed as a percentage of the mean value for untreated control wells. […] Methods for preparation and maintenance of cultures of PC12 cells and primary embryonic rat hippocampal neurons have been described previously (Furukawa et al., J. Neurosci., 17, 8178-8186 (1997) and Chan et al., J. Biol. Chem., 279, 28733-28743 (2004)). Cells are plated into polyethylenimine-coated plastic 96-well culture plates containing Neurobasal medium with B27 supplements. Experiments are performed in 7-8 day-old cultures (hippocampal neurons) or Dulbecco's modified eagle's medium (DMEM) with 10% fetal bovine serum (PC12 cells). […] Cell viability is quantified by counting viable neurons in premarked microscope fields prior to and following experimental treatment and then calculating percent survival.

[4] = Pharmacokinetics: plasma and brain levels after intravenous administration; format: in vivo, C57BL/6 mice; settings: mice; for Kp: male, C57BL/6, mouse, brain (cerebral cortical tissue) / plasma, early time points (15-30 min), read-out: brain tissue concentration as percentage of plasma concentration; for detection in the brain: equimolar to 10 mg/kg uric acid, 15, 30, 60 and 120 min; for brain concentration time course versus plasma: through the 120 min time point
Protocol: Mice are administered intravenously 10 mg/kg ([…]) of uric acid as a reference compound and equimolar doses of its analogs (sUA4-2,6,8 trithio uric acid, 12.9 mg/kg; mUA2-1,7 dimethyl uric acid, 11.7 mg/kg; sUA2-6,8 dithio uric acid, 11.9 mg/kg). Three month-old male C57BL/6 mice are injected with a compound and are euthanized 15, 30, 60 or 120 min later (1 mouse/time point/compound). Blood and brain tissues are rapidly removed, frozen on dry ice and kept at −80° C. before quantification of uric acid analogs. Plasma and cerebral cortical tissues are extracted in 10 volumes of 0.5 M perchloric acid and 1 mM ethylenediamine tetraacetic acid (EDTA). Levels of uric acid analogs in the extracts are quantified by HPLC methods employing a 25 cm RP C18 column, 25 mM KH2PO4 buffer (pH=4.6) with 1 ml/min flow rate and UV diode array detection.
Mice that are administered mUA2, sUA2 or sUA4 intravenously are euthanized at increasing time points (15, 30, 60 and 120 min) and levels of the compounds in plasma and brain tissue are measured.

PC12 cells [5] = assay: PC12 cell death induced by MPP+; format: cell-based; settings: concentrations of 0.1 to 10 μM; FIGS. 3A and 3B
Source text: (§2) FIG. 3 illustrates that uric acid and a compound of formula (I) protect cultured neural cells against oxidative and excitotoxic injury in an embodiment of the invention. Cultured PC12 cells are pretreated with uric acid (FIG. 3A) or mUA3 (FIG. 3B). Cultured hippocampal neurons are pretreated with uric acid (FIG. 3C) or mUA3 (FIG. 3D). Cell survival is quantified and values are the mean and SEM of 4-8 cultures. *p<0.05 compared to 0 uric acid or mUA3 concentration.
(§3) Methods for preparation and maintenance of cultures of PC12 cells and primary embryonic rat hippocampal neurons have been described previously (Furukawa et al., J. Neurosci., 17, 8178-8186 (1997) and Chan et al., J. Biol. Chem., 279, 28733-28743 (2004)). Cells are plated into polyethylenimine-coated plastic 96-well culture plates containing Neurobasal medium with B27 supplements. Experiments are performed in 7-8 day-old cultures (hippocampal neurons) or Dulbecco's modified eagle's medium (DMEM) with 10% fetal bovine serum (PC12 cells). Hippocampal neurons and PC12 cells are plated 7 days and 3 days prior to experiments, respectively. […] Cell viability is quantified by counting viable neurons in premarked microscope fields prior to and following experimental treatment and then calculating percent survival. […]

PC12 cells [6] = assay: PC12 cell death induced by Fe2+; format: cell-based; settings: concentrations of 0.1 to 10 μM; FIGS. 3A and 3B
Source text: as §2, §3

[7] = tested on: ROS in cerebral cortex synaptosomes; assay: Synaptosome antioxidant assay (Fe2+-induced ROS, dihydrorhodamine 123); format: cell-based, Sprague-Dawley rats; settings: 1-10 μM, 1 h pretreatment, then 50 μM Fe2+ for 4 h; FIG. 1B
Protocol: FIG. 1A depicts structures of uric acid and exemplary compounds of formula (I). FIG. 1B illustrates antioxidant activities of uric acid and compounds of formula (I) as quantified using a synaptosome assay in an embodiment of the invention. Levels of reactive oxygen species (ROS) are measured and values are expressed as a percentage of ROS present in Fe^2+-treated control synaptosomes (mean and SEM, n=4 experiments). *p<0.05, **p<0.01 compared to the control value.
Synaptosomes are prepared from the cerebral cortex of 2-3 month-old adult male Sprague-Dawley rats and are cryopreserved using methods described previously (Begley et al., Brain Res. Protoc., 3, 76-82 (1998)). After thawing, cryopreserved synaptosomes are washed twice with Locke's buffer and plated in 24-well plates at a protein concentration of 250 μg per well. […] After an additional 30 min incubation in the presence of 10 μM dihydrorhodamine 123 (DHR), a probe for ROS which fluoresces when oxidized (Keller et al., J. Neurochem., 69, 273-284 (1997)), the synaptosomes are washed twice with Locke's buffer and levels of fluorescence are quantified using a fluorescence plate reader (488 nm excitation and 510 emission wavelengths). Fluorescence values for wells exposed to experimental treatments are expressed as a percentage of the mean value for untreated control wells.

[8] = tested on: primary hippocampal neurons; assay: Hippocampal neuron death induced by Fe2+; format: cell-based, rat; settings: FIGS. 3C and 3D
Source text: as §2, §3

[9] = tested on: primary hippocampal neurons; assay: Hippocampal neuron death induced by glutamate excitotoxicity; format: cell-based, rat; settings: FIGS. 3C and 3D
Source text: as §2, §3

| solubility [1] | Kp [4] | SMILES | functional outcome (neurological deficit score) [2] | brain damage [2] | resistance to OGD induced death [3] | detection in the brain [4] | brain concentration time course versus plasma [4] | protection of PC12 cells against MPP+ (PC12 cells [5]) | protection of PC12 cells against Fe2+ (PC12 cells [6]) | levels of ROS in synaptosomes [7] | protection of primary hippocampal neurons against death induced by Fe2+ [8] | protection of primary hippocampal neurons against glutamate excitotoxicity [9] |
| --- | --- | --- | --- | --- | --- | --- | --- | --- | --- | --- | --- | --- |
| 2000 µg/mL (≈ 10.2 mM) | ~0.1 | Cn1c(=O)[nH]c2[nH]c(=O)n(C)c2c1=O [mUA2, 1,7 dimethyl uric acid] | significantly improve functional outcome | decrease brain damage | significantly more resistant | detected in the brain at all time points examined | remain elevated while plasma concentrations decrease progressively |  |  |  |  |  |
| 3000 µg/mL (≈ 13.9 mM) | ~0.1 | S=c1[nH]c(=S)c2[nH]c(=S)[nH]c2[nH]1 [sUA4, 2,6,8 trithio uric acid] | significantly improve functional outcome | decrease brain damage | significantly more resistant | detected in the brain at all time points examined | remain elevated while plasma concentrations decrease progressively |  |  |  |  |  |
| 100 µg/mL (≈ 0.595 mM) |  | O=c1[nH]c(=O)c2[nH]c(=O)[nH]c2[nH]1 [uric acid] |  |  |  |  |  | protected | protected | significantly diminished | protected | protected |
